Results taken from US20050004070A1, “Anti-infectious carbohydrates” (priority 2001, published 2005).
“Also recorded” adds a separate entry of the source.

System: listeria bacteria, in particular Listeria monocytogenes
Test: Invasion and infection of mammal cells by listeria bacteria
Format: cell-based
Details: no method or numbers given

Compound	inhibitory action against listeria bacteria (invasion and infection of mammal cells)
CC(=O)N[C@H]1[C@H](O[C@H]2[C@@H](O)[C@@H](CO)O[C@@H](O[C@@H]([C@H](O)[C@@H](O)C=O)[C@H](O)CO)[C@@H]2O)O[C@H](CO)[C@@H](O[C@@H]2O[C@@H](C)[C@@H](O)[C@@H](O)[C@@H]2O)[C@@H]1O[C@@H]1O[C@H](CO)[C@H](O)[C@H](O)[C@H]1O [LNFP II]	did not shown any such action
LNFP III	did not shown any such action
lacto-N-fucopentaose I [LNFP I]	particularly strong inhibitory effect; also recorded: strong, yet dose-dependant inhibitory action
